Target: T1, human M1 receptor (hCHRM1) (Homo sapiens, UniProt P11229)
T1 construct: expressed in transfected cells
T1 sequence (P11229 1-460): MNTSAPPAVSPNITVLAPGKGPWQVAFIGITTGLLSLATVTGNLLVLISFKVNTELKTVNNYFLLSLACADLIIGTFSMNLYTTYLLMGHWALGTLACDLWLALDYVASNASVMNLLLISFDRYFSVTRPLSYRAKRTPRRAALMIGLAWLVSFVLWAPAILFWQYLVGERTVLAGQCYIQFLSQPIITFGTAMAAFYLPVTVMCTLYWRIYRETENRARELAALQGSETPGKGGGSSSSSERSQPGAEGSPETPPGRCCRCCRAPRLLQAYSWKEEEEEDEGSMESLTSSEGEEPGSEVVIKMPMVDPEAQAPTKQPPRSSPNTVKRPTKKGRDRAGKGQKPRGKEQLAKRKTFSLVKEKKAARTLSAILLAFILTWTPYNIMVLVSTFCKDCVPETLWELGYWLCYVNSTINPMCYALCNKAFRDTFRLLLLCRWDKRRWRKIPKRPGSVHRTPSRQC
Assay: Measurement of M1 receptor positive allosteric modulator (M1PAM) activity, calcium fluorescence (FLIPRtetra) with acetylcholine at EC20
Format: cell-based
Details: for activity (%) at 10 μM: 10 μM test compound, 100% = acetylcholine 1 μM, 0% = DMSO, acetylcholine at EC20; for EC50: inflection point of concentration-dependent curve, CHO-K1 cells expressing hCHRM1, acetylcholine at EC20 (final 0.6-0.8 nM), read-out: IP value
Method in brief: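 CHO-K1 cells stably expressing hCHRM1, Fluo-4 AM loaded; compound added with acetylcholine at EC20 (final 0.6-0.8 nM), fluorescence read 1 min. Activity normalised to 1 μM acetylcholine (100%) and DMSO (0%); IP values taken as inflection point of the concentration-response curve.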

Compound | activity (%) at 10 μM | EC50
Cc1c(Cc2ccc(-n3cccn3)cc2)cc2c(c1C)CN([C@H]1COCC[C@@H]1O)C2=O (racemic) [Example 35, rac-2-(trans-4-hydroxytetrahydro-2H-pyran-3-yl)-4,5-dimethyl-6-(4-(1H-pyrazol-1-yl)benzyl)-2,3-dihydro-1H-isoindol-1-one] | 103% | 3.9 nM
CNC(=O)c1ccc(Cc2cc3c(c(C)c2C)CN([C@H]2COCC[C@@H]2O)C3=O)cc1F [Example 19, 1,5-anhydro-2,4-dideoxy-2-(6-(3-fluoro-4-(methylcarbamoyl)benzyl)-4,5-dimethyl-1-oxo-1,3-dihydro-2H-isoindol-2-yl)-L-threo-pentitol] | 101% | 2 nM
Cc1cc(-c2ccc(Cc3cc4c(cc3C)CN([C@H]3CCC[C@@H]3O)C4=O)cn2)ccn1 (racemic) [Example 41, rac-2-(trans-2-hydroxycyclopentyl)-5-methyl-6-((2′-methyl-2,4′-bipyridin-5-yl)methyl)isoindolin-1-one] | 97% | 30 nM
Cc1c(Cc2ccc(OC(F)F)cc2)cc2c(c1C)CN([C@H]1COCC[C@@H]1O)C2=O [Example 22, 1,5-anhydro-2,4-dideoxy-2-(6-(4-(difluoromethoxy)benzyl)-4,5-dimethyl-1-oxo-1,3-dihydro-2H-isoindol-2-yl)-L-threo-pentitol] | 110% | 32 nM
Cc1cc2c(cc1Cc1ccc(-c3cnn(C)c3)cc1)C(=O)N([C@H]1CCC[C@@H]1O)C2 (racemic) [Example 67, rac-2-(trans-2-hydroxycyclopentyl)-5-methyl-6-(4-(1-methyl-1H-pyrazol-4-yl)benzyl)isoindolin-1-one] | 93% | 26 nM
CCc1cc2c(cc1Cc1ccc(-n3cccn3)cc1)C(=O)N(CC1CCCO1)C2 (stereo not drawn) [Example 58, 5-ethyl-6-(4-(1H-pyrazol-1-yl)benzyl)-2-(tetrahydrofuran-2-ylmethyl)isoindolin-1-one] | 100% | 95 nM
Cc1cc(-c2ccc(Cc3cc4c(cc3C)CN([C@H]3CCC[C@@H]3O)C4=O)cc2)cnn1 (racemic) [Example 91, rac-2-(trans-2-hydroxycyclopentyl)-5-methyl-6-(4-(6-methylpyridazin-4-yl)benzyl)isoindolin-1-one] | 95% | 38 nM
CCc1cc2c(cc1Cc1ccc(-c3ccn(C)n3)cc1)C(=O)N([C@H]1CCC[C@@H]1O)C2 (racemic) [Example 63, rac-5-ethyl-2-(trans-2-hydroxycyclopentyl)-6-(4-(1-methyl-1H-pyrazol-3-yl)benzyl)isoindolin-1-one] | 99% | 45 nM
Cc1c(Cc2ccc(-c3ccn(C)n3)cc2)cc2c(c1C)CN([C@H]1CCC[C@@H]1O)C2=O (racemic) [Example 83, rac-2-(trans-2-hydroxycyclopentyl)-4,5-dimethyl-6-(4-(1-methyl-1H-pyrazol-3-yl)benzyl)isoindolin-1-one] | 92% | 13 nM
Cc1c(Cc2ccc(-c3ccn(C)n3)cc2)cc2c(c1C)CN([C@H]1CCCC[C@@H]1O)C2=O (racemic) [Example 82, rac-2-(trans-2-hydroxycyclohexyl)-4,5-dimethyl-6-(4-(1-methyl-1H-pyrazol-3-yl)benzyl)isoindolin-1-one] | 91% | 5.7 nM
O=C1c2cc(Cc3ccc(-n4cccn4)cc3)c(Cl)cc2CN1[C@H]1CCCC[C@@H]1O (racemic) [Example 2, rac-5-chloro-2-(trans-2-hydroxycyclohexyl)-6-(4-(1H-pyrazol-1-yl)benzyl)isoindolin-1-one] | 109% | 86 nM
Cc1cc2c(cc1Cc1ccc(-c3cn(C)nn3)cc1)C(=O)N([C@H]1CCCC[C@@H]1O)C2 (racemic) [Example 47, rac-2-(trans-2-hydroxycyclohexyl)-5-methyl-6-(4-(1-methyl-1H-1,2,3-triazol-4-yl)benzyl)isoindolin-1-one] | 99% | 3 nM
